One experiment has as its target T1, MOP (μ-opioid receptor) (Homo sapiens, UniProt P35372).
T1 construct: gene OPRM1; full-length receptor stably expressed in CHO-K1 cells (ChanTest)
In words: TR-FRET cAMP assay (LANCE Ultra), inhibition of forskolin-stimulated cAMP. The experiment is classed as cell-based. From the text: TR-FRET cAMP assay (LANCE Ultra), inhibition of forskolin-stimulated cAMP on MOP (μ-opioid receptor)
A general note: TR-FRET usually uses a lanthanide donor and a delayed reading to cut background.

The next experiment deals with T2, DOP (δ-opioid receptor) (Homo sapiens, UniProt P41143).
T2 construct: gene OPRD1; full-length receptor stably expressed in CHO-K1 cells (ChanTest)
The experiment is described as above. The class given is cell-based. From the text: TR-FRET cAMP assay (LANCE Ultra), inhibition of forskolin-stimulated cAMP on DOP (δ-opioid receptor)

T1 sequence (P35372 whole entry): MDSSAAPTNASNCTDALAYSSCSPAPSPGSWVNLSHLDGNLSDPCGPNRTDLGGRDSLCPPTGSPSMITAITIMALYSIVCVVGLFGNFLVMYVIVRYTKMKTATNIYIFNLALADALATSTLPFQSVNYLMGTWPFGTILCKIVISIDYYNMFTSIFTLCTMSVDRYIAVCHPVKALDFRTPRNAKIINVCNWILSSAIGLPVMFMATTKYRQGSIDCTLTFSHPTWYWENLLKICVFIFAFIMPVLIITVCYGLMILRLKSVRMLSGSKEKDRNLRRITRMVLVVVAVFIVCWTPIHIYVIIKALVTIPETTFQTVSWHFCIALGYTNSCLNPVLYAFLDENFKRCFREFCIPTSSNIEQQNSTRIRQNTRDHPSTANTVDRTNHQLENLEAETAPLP
T2 sequence (P41143 whole entry): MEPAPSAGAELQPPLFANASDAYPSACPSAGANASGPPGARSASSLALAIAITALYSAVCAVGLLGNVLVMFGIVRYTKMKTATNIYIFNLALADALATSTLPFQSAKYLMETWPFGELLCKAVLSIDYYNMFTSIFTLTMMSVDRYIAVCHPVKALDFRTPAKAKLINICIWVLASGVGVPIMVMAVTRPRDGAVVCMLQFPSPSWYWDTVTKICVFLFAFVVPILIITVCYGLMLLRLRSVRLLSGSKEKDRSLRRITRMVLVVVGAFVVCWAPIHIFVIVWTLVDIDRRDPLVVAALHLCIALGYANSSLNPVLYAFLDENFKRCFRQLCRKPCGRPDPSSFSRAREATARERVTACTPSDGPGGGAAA

One may read the EC50 as the concentration giving half of the maximal effect. A higher EC50 goes with a need for much substance. Regarding `CN(C(=O)/C=C/c1ccoc1)[C@@H]1CC[C@@]2(O)[C@H]3Cc4ccc(O)c5c4[C@@]2(CCN3CC2CC2)[C@H]1O5` [Nalfurafine], the EC50 was found to be 7.8 nM on MOP (μ-opioid receptor) and 132 nM on DOP (δ-opioid receptor).

For the origin of these results see paper PMC10598265, “Effects of the novel selective κ-opioid receptor agonist NP-5497-KA on morphine-induced reward-related behaviors” (Scientific Reports, 2023).
